From patent US20220098228A1, “METHODS AND COMPOSITIONS FOR IMPROVING THE IMMUNE SYSTEM AND PROVIDING IMMUNO-PROTECTION” (Natreon, Inc., priority 2020, published 2022)
Marks after values point to notes of the source that are not given here.

Assays:
peritoneal macrophages [1] = experiment: NBT reduction assay in peritoneal macrophages, cyclophosphamide-induced immunosuppression (Example II); assay type: in vivo, Swiss albino mice
Description: (§1) The mice were acclimatized for one week in the laboratory conditions, before being used in the experiment. All experiments were conducted between 10.00 hr and 14.00 hr. Principles of laboratory animal care (NIH publication no. 85-23, revised 1985) were followed.
(§2) All test compounds (DBPs and DBP glycosides) were suspended in 0.3% of CMC (Carboxymethyl Cellulose) solutions of distilled water and were administered orally for 7 days by using an intubation canula. The volume of dose was 100 μl/10 g body weight. Cyclophosphamide was dissolved in distilled water and was injected (250 mg/kg, i.p.) on day one and volume of dose was 100 μl/10 g body weight. Control animals received equivalent volume of the vehicles CMC (0.3%) solutions only.
On day seven all the animals were sacrificed under ether anesthesia and peritoneal macrophages were lavaged using ice cold phosphate buffer saline (PBS: 0.15M NaCl pH-7.4). After centrifugation (3000 rpm×10 min) at 4° C. the pellet was re-suspended in PBS and cell viability was confirmed by trypan blue exclusion method. (Bala A, Haldar P K, Kar B, Naskar S and Mazumder U K, “Carbon tetrachloride: A hepatotoxin causes oxidative stress in murine peritoneal macrophage and peripheral blood lymphocyte cells” Immunopharmacol. and Immunotoxicol. 34(1): 157-162 (2012)).
Preparation of NBT solution: 0.2% NBT (nitroblue tetrazolium) in PB (Phosphate Buffer, pH 7.4), 5% dextrose and HBSS (Hank's balanced salt solution). The three solutions were mixed in 6:2:4 ratios. (Saxena A K, Singh K P, Srivastava S N, Shukla L J and Shanker R., “Immunomodulating effects of caffeine in rodents” Ind J Exptl Biol. 22: 298-301 (1984)).
Method: 0.5 ml of NBT solution was added to 0.5 ml of peritoneal macrophages (1×10^6 cells/ml) in a micro-centrifuge tube. This mixture was incubated at 37° C. for 45 minutes. The cell suspension was centrifuged at 1500 rpm for 10 minutes. Supernatant was discarded and pellet was re-suspended in 2 ml of DMSO. The tubes were kept in a boiling water bath for 10 minutes. The tubes were again centrifuged at 1500 rpm for 10 minutes. The supernatant was collected, and absorbance was measured at 515 nm.

splenocytes [2] = experiment: Cell viability of splenocytes, trypan blue exclusion, cyclophosphamide-induced immunosuppression (Example II); assay type: in vivo, Swiss albino mice; conditions: 10 mg/kg body weight p.o. 7 days + cyclophosphamide 250 mg/kg i.p.; Mean ± SD, n = 6
Description: as §1, §2
Spleen was collected. Single cell suspension was prepared by mincing and tapping the spleen fragments on stainless steel 200-mesh in ice cold phosphate buffer saline (PBS: 0.15M NaCl pH 7.4). Cell suspension was centrifuged at 2000 rpm for 10 minutes. The pellet was re-suspended in PBS and cell viability was confirmed by trypan blue exclusion method.

[3] = mouse, in vivo
Description: (§3) Male and female Swiss albino mice (n=8; 4 from each gender) weighing approximately 25±5 g, were obtained from National Research Institute of Ayurveda for Drug Development (Govt. of India), Kolkata, and were housed in polypropylene cages at 22±3° C., relative air humidity of 45 to 55%, with 12.00 h light & dark cycle (lighting on from 6:00 AM to 6:00 PM). […] The mice were acclimatized for one week in the laboratory conditions, before being used in the experiment. All experiments were conducted between 10.00 h and 14.00 h. Principles of laboratory animal care (NIH publication no. 85-23, revised 1985) was followed.
(§4) Cyclophosphamide was dissolved in distilled water and the mice were administered a single exposure (250 mg/kg, i.p.) on day 1.
(§5) 3-OH-DBP, 3,8-(OH)2-DBP, and combined 3-OH-DBP+3,8-(OH)2-DBP were administered once daily for 7 days starting from day 1. Following 7 days of treatment the mice were anaesthetized and sacrificed under anaesthesia followed by collection of peritoneal macrophages and spleen (for splenocyte isolation).
(§6) Swiss albino mice were randomly divided into 8 Groups (n=8; 4 from each gender). […] (2:10) (12 mg/kg b.w., p.o.), Group VI mice were administered 3-OH-DBP (10 mg/kg b.w., p.o.), Group VII mice were administered 3,8-(OH)2-DBP (50 mg/kg b.w., p.o.), Group VIII mice were administered [3-OH-DBP+3,8-(OH)2-DBP] (10:50) (60 mg/kg b.w., p.o.).
(§7) Results were expressed in terms of mean±SEM (n=8; 4 from each gender). Data were subjected to one way ANOVA followed by Tukey's test using GraphPad Prism 4.0 software to establish statistical significance (*p<0.05, **p<0.01, ***p<0.001, where * refers to comparison with Group I vehicle control; #p<0.05, ##p<0.01, ###p<0.001, where #refers to comparison with Group II cyclophosphamide administration; ^ap<0.05, ^aap<0.01, ^aap<0.01, where a refers to comparison of Day 7 with Day 0).

peritoneal macrophages [4] = experiment: Peritoneal macrophage viability, trypan blue exclusion (Example III); assay type: in vivo, Swiss albino mice
Description: as §3, §4, §5, §6
(§8) All the animals were sacrificed under ether anesthesia and peritoneal macrophages were lavaged using ice cold phosphate buffer saline (PBS: 0.15 M NaCl; pH: 7.4). After centrifugation (3000 rpm×10 min) at 4° C., pellets were re-suspended in PBS and cell viability was confirmed by trypan blue exclusion assay.
as §7

peritoneal macrophages [5] = experiment: NBT reduction of peritoneal macrophages (Example III); assay type: in vivo, Swiss albino mice; conditions: for NBT reduction compared with vehicle control: cyclophosphamide, 3-OH-DBP 2 and 10 mg/kg, combined 12 mg/kg
Description: as §3, §4, §5, §6, §8
Preparation of NBT solution: 0.2% NBT (nitroblue tetrazolium) in PBS (pH 7.4), 5% dextrose and HBSS. These three solutions were mixed in 6:2:4 ratios.
0.5 ml of NBT solution was added to 0.5 ml of peritoneal macrophages (1×10^6 cells/ml) in micro-centrifuge tube. This mixture was incubated at 37° C. for 2 hours. The cell suspension was centrifuged at 2000 rpm for 10 minutes. Supernatants were discarded and pellets were re-suspended in 1 ml of DMSO. The tubes were kept in boiling water bath for 10 minutes and then cooled and centrifuged at 2000 rpm for 10 minutes. The supernatants were collected and absorbance was measured at 515 nm.
as §7

splenocytes [6] = experiment: Splenocyte viability, trypan blue exclusion (Example III); assay type: in vivo, Swiss albino mice; conditions: for % Viability Day7, splenocyte viability: Day 7
Description: as §3, §4, §5, §6
Spleens were collected and single cell suspension was prepared by mincing and tapping the spleen fragments on stainless steel 200-mesh in ice cold phosphate buffer saline (PBS: 0.15M NaCl; pH: 7.4). Cell suspensions were centrifuged at 2000 rpm for 10 minutes.
as §7

[7] = female mice, 3-OH-DBP 2 and 10 mg/kg, 3,8-(OH)2-DBP 10 and 50 mg/kg, combined 12 and 60 mg/kg
[8] = female mice, 2 mg/kg p.o. + cyclophosphamide 250 mg/kg i.p.
[9] = female mice, 10 mg/kg p.o. + cyclophosphamide 250 mg/kg i.p.
[10] = male mice, 3-OH-DBP 10 mg/kg, 3,8-(OH)2-DBP 50 mg/kg, combined 60 mg/kg
[11] = male mice, 2 mg/kg p.o. + cyclophosphamide 250 mg/kg i.p.
[12] = male mice, 10 mg/kg p.o. + cyclophosphamide 250 mg/kg i.p.

O=c1oc2cc(O)ccc2c2ccccc12 [3-OH-DBP, 3-hydroxy-dibenzo-alpha-pyrone]
OD (515 nm), NBT reduction assay in peritoneal macrophages (peritoneal macrophages [1]; 10 mg/kg body weight p.o. 7 days + cyclophosphamide 250 mg/kg i.p., Mean ± SD, n = 6): 0.154 ± 0.019 | improvement in NBT reduction capacity (peritoneal macrophages [1]; 10 mg/kg body weight p.o., in comparison with cyclophosphamide treated mice): moderate (p<0.05) improvement | % Cell Viability of splenocytes (splenocytes [2]): 59.70 ± 3.59% | feed intake Day 7 in comparison to Day 0 [3]: significantly (p<0.05, p<0.01) decreased | feed intake compared to vehicle control [3]: significantly (p<0.05, p<0.01) decreased | water intake compared with cyclophosphamide treated mice [3]: significantly (p<0.001) decreased | water intake compared with vehicle control [3]: significantly (p<0.001) decreased | water intake compared with vehicle control and cyclophosphamide treated mice [3]: significantly (p<0.05, p<0.001) decreased | peritoneal macrophage viability compared with cyclophosphamide treated mice (peritoneal macrophages [4]; [7]): significantly (p<0.05, p<0.01) increased | % Viability Day 7, peritoneal macrophage viability (peritoneal macrophages [4]; [8]): 62.53 ± 2.14** % | % Viability Day 7, peritoneal macrophage viability (peritoneal macrophages [4]; [9]): 72.56 ± 2.01^# % | peritoneal macrophage viability compared with cyclophosphamide treated mice (peritoneal macrophages [4]; [10]): significantly (p<0.05, p<0.01) increased | % Viability Day 7, peritoneal macrophage viability (peritoneal macrophages [4]; [11]): 59.90 ± 0.51* % | % Viability Day 7, peritoneal macrophage viability (peritoneal macrophages [4]; [12]): 69.64 ± 2.77# % | peritoneal macrophage viability compared with vehicle control (peritoneal macrophages [4]; male mice, cyclophosphamide, 3-OH-DBP 2 mg/kg, 3,8-(OH)2-DBP 10 mg/kg): significantly (p<0.05) decreased | NBT reduction compared with cyclophosphamide treated mice (peritoneal macrophages [5]; female mice, 3-OH-DBP 10 mg/kg, 3,8-(OH)2-DBP 50 mg/kg, combined 12 and 60 mg/kg): significantly (p<0.05, p<0.01, p<0.001) increased | O.D. (515 nm) Day 7, NBT reduction of peritoneal macrophages (peritoneal macrophages [5]; [8]): 0.142 ± 0.005*** | O.D. (515 nm) Day 7, NBT reduction of peritoneal macrophages (peritoneal macrophages [5]; [9]): 0.207 ± 0.02**,## | NBT reduction compared with vehicle control (peritoneal macrophages [5]; female mice, 3,8-(OH)2-DBP 10 and 50 mg/kg): significantly (p<0.05, p<0.01, p<0.001) decreased | O.D (515 nm) Day 7, NBT reduction of peritoneal macrophages (peritoneal macrophages [5]; [11]): 0.257 ± 0.02338*** | O.D (515 nm) Day 7, NBT reduction of peritoneal macrophages (peritoneal macrophages [5]; [12]): 0.232 ± 0.04097*** | NBT reduction compared with vehicle control (peritoneal macrophages [5]; male mice, 3,8-(OH)2-DBP 10 mg/kg): significantly (p<0.01, p<0.001) decreased | splenocyte viability compared with cyclophosphamide treated mice (splenocytes [6]; [7]): significantly (p<0.05, p<0.01, p<0.001) increased | % Viability Day7, splenocyte viability (splenocytes [6]; [8]): 88.40 ± 1.61# % | % Viability Day7, splenocyte viability (splenocytes [6]; [9]): 90.77 ± 1.77## % | splenocyte viability compared with cyclophosphamide treated mice (splenocytes [6]; [10]): significantly higher | % Viability Day7, splenocyte viability (splenocytes [6]; [11]): 69.34 ± 1.84*** % | % Viability Day7, splenocyte viability (splenocytes [6]; [12]): 80.9 ± 1.24## % | splenocyte viability compared with vehicle control (splenocytes [6]; male mice, cyclophosphamide, 2 mg/kg 3-OH-DBP, 10 mg/kg 3,8-(OH)2-DBP, 12 mg/kg combined): similarly decreased
